From patent publication US20040043914A1, “Sustained release antimicrobial composition including a partially halogenated hydantoin and a colorant” (LONZA INC., priority 2002, published 2004)

Assay: Total chlorine yield upon dissolution
Assay type: physicochemical
From the text: The partially halogenated hydantoin is preferably monochloro-5,5-dimethyl hydantoin (MCDMH). MCDMH yields about 43% of its weight in total chlorine upon dissolution.

Substance: monochloro-5,5-dimethyl hydantoin [MCDMH]
- total chlorine yielded upon dissolution: about 43 % of its weight
